{"source": "patent US20190358176A1", "about": "“METHODS OF SENSITIZING CANCER CELLS TO IMMUNE CELL KILLING” (University of Pittsburgh - of the Commonwealth System of …, priority 2017, published 2019)", "key": {"[1]": {"tested_on": "MDA-MB-231 cells", "assay": "Detection and quantitation of ROS in cancer cells (CM-H2-DCFDA)", "format": "cell-based, human", "conditions": "50 μM", "procedure": "Detection and quantitation of ROS in cancer cells was performed as described before (14). Briefly, MDA-MB-231 cells were labeled with Hoechst 33342, loaded with CM-H2-DCFDA (5 μM, 15 min), and treated with test agents for 10 min. After two washes, cells were analyzed for Hoechst and ROS/FITC fluorescence on the ArrayScan II. Cells were classified as positive for ROS if their average FITC intensity exceeded a threshold defined as the average FITC intensity plus one SD from DMSO-treated wells."}, "[2]": {"tested_on": "MDA-MB-231 cells", "assay": "HCA of apoptosis and ERK phosphorylation (multiparametric: nuclear condensation, caspase-3 cleavage, ERK phosphorylation)", "format": "cell-based, human", "conditions": "for IC50: Homo sapiens, 24 hours", "procedure": "MDA-MB-231 cells (10,000/well) were treated with identical concentration gradients of test agents on the right and left half of a 384 well microplate for later assessment of potential compound autofluorescence. After 24 hours, cells were fixed, permeabilized with 0.2% Triton X-100, blocked with 1% BSA/PBS, and immunostained with anti-phospho-ERK (E10, CST cat#9106L)/AlexaFluor488 and anti-cleaved caspase-3 (CST cat#9664L)/AlexaFluor594 primary/secondary antibody pairs. Plates were imaged on the ArrayScan II using a 10×0.5NA objective. Each well was background corrected by subtracting mean phospho-ERK and cleaved caspase-3 intensities from wells that had received secondary antibody only. Data in Table 1 are the averages of the indicated numbers of independent experiments, each performed in quadruplicate. IC50, standard error, and 95% confidence intervals were calculated by […] in GraphPad Prism.\nMultiple data points were analyzed in GraphPad Prism by one-way ANOVA using Dunnett's multiple comparison test. EC50/IC50 values were obtained from at least three independent experiments by non-linear regression using a four parameter logistic equation. IC50, standard error, and 95% confidence intervals were calculated in GraphPad."}, "[3]": {"tested_on": "zebrafish embryos", "conditions": "prior SAR study (12); cited from earlier work"}, "[4]": {"tested_on": "endothelial cell line", "conditions": "prior SAR study (12); cited from earlier work"}, "[5]": {"tested_on": "DUSP6/MKP-3 and DUSP1/MKP-1", "conditions": "HeLa cells, prior study (12); cited from earlier work"}, "[6]": {"tested_on": "MDA-MB-231 cells", "assay": "Colony formation in three dimensional matrigel culture", "format": "cell-based, human", "procedure": "MDA-MB-231 cells (2000/well) transduced with a biosensor consisting of EGFP with a mitochondrial targeting sequence derived from cytochrome-C oxidase subunit VIII (52) were trypsinized, resuspended in RPMI1640 containing 2% FBS and 2% matrigel, and seeded in 384 well microplates on a 15 μl cushion of undiluted matrigel. After 24 hours, cells were treated with various concentrations of BCI-215 or vehicle (0.2% DMSO). After two days, drug was washed out and cells allowed to expand for an additional three to five days. At the end of the study, medium was replaced with HBSS containing 4 μg/ml PI for 1 hour, and plates scanned live on an ImageXpress Ultra HCS reader, acquiring z-stacks (4× objective, 20 planes, 50 μm) in the green and red channels. Cell numbers were quantified from maximum projection images using the Multiwavelength Cell Scoring application."}, "[7]": {"tested_on": "rat hepatocytes", "assay": "Five-day hepatocyte toxicity (PI positive cells)", "format": "cell-based", "conditions": "rat hepatocytes, 5-day exposure", "procedure": "Rat hepatocytes were isolated using standard two step collagenase digestion (15) and sub-cultivated at 14,000 hepatocytes/well in collagen-1 coated 384 well plates in Williams E Medium supplemented with 10% FBS, 2 mM L-glutamine and 50 U/ml Penicillin and streptomycin. After 4 hours, medium was decanted and replaced with Hepatocyte Maintenance Media (Williams E supplemented with 1.25 mg/ml bovine serum albumin, 6.25 μg/ml human insulin, 100 nM dexamethasone, 6.25 μg/ml human transferrin, 6.25 ng/ml selenous acid, 2 mM L-glutamine, 15 mM HEPES, 100 U/mL penicillin, and 100 U/mL streptomycin). After overnight culture, cells were treated with concentration gradients of test agents. One hour after compound addition, cells were labeled with 200 nM TMRE and 4 μg/ml Hoechst 33342 for 45 min, imaged live on an ArrayScan VTI using a 10× objective, and images were analyzed with the Compartmental Bioapplication. Mitochondria were identified as cytosolic spots by size and brightness. The final parameter was % HIGH RingSpotAvgIntenCh2 (i.e., percentage of cells with TMRE puncta in the cytoplasm based on a threshold set with vehicle treated cells).\nA gelling solution of 1.25 mg/ml rat tail collagen type I in pH 7.2 90:10 (v/v) Williams E media/10×HBSS was overlaid onto the rat hepatocytes. The collagen gel was incubated for 1 hour at 37° C., 5% CO2. The collagen sandwich cultures were then challenged for 5 days to test compounds in Hepatocyte Maintenance Media, without refeeding. A 10× solution of 40 μg/ml Hoechst 33342 was added during the final 2 hours of incubation followed by a 10× solution of 20 μg/ml PI for 1 hour. Cells were imaged and the percentage of PI positive cells calculated as above."}, "[8]": {"tested_on": "MDA-MB-231 cells", "assay": "BCI-215 toxicity in the presence of doxorubicin", "format": "cell-based, human", "conditions": "doxorubicin 5 μM pre-treated 2-3 hours", "procedure": "FIG. 9. Reduced toxicity of BCI-215 in the presence of doxorubicin. MDA-MB-231 carrying the mitochondrial-targeted, GFP-labeled cytochrome C biosensor were treated for 2-3 hours with vehicle (DMSO) or doxorubicin (5 μM) before being exposed to concentration gradients of BCI-215 for 20 h. Plates were scanned live on an ImageXpress high content reader at 20× magnification and GFP positive cells enumerated. Cell densities were normalized to vehicle or doxorubicin alone, respectively. Data are the averages ±SD from three independent experiments, each performed in quadruplicate."}}, "note": "Where two headings read alike, the source gives them in different places.", "data": [{"compound": "O=C1/C(=C/c2ccccc2)C(NC2CCCCC2)c2cc(Br)ccc21", "note": "(stereo not drawn) [BCI-215]", "values": [{"measurement": "ROS generation at 50 μM", "setting": "[1]", "result": "did not generate ROS"}, {"measurement": "nuclear morphology", "setting": "[2]; BCI and BCI-215 at 22 μM", "result": "shrunken, condensed nuclei that resembled pyknosis"}, {"measurement": "IC50", "setting": "[2]; induction of phospho-ERK, read-out: IC50 ERK phosphorylation", "result": 15.4, "unit": "µM"}, {"measurement": "IC50", "setting": "[2]; read-out: IC50 Caspase-3 cleavage", "result": 7.33, "unit": "µM"}, {"measurement": "IC50", "setting": "[2]; read-out: IC50 Nuclear condensation", "result": 12.8, "unit": "µM"}, {"measurement": "toxicity to zebrafish embryos", "setting": "[3]", "result": "non-toxic"}, {"measurement": "toxicity to an endothelial cell line", "setting": "[4]", "result": "non-toxic"}, {"measurement": "effect on ectopic DUSP6/MKP-3 and DUSP1/MKP-1 expression", "setting": "[5]", "result": "override the effects"}, {"measurement": "cell lysis (PI positivity)", "setting": "[6]; longer-term 3D matrigel assay", "result": "pronounced cell lysis"}, {"measurement": "colony formation", "setting": "[6]; matrigel-on-top model, two days of exposure then washout", "result": "inhibited colony formation"}, {"measurement": "hepatocyte toxicity, cell death (PI positive cells)", "setting": "[7]", "result": "completely devoid of hepatocyte toxicity up to 100"}, {"measurement": "toxicity of BCI-215 after doxorubicin pre-treatment (cell numbers)", "setting": "[8]", "result": "reduced the toxicity of BCI-215"}]}]}
